Assay results published in paper PMC5615129 (Toxicology Reports, 2017).

Biological target: T1, aromatase (CYP19) (Homo sapiens, UniProt P11511)
T1 sequence (P11511 1-503): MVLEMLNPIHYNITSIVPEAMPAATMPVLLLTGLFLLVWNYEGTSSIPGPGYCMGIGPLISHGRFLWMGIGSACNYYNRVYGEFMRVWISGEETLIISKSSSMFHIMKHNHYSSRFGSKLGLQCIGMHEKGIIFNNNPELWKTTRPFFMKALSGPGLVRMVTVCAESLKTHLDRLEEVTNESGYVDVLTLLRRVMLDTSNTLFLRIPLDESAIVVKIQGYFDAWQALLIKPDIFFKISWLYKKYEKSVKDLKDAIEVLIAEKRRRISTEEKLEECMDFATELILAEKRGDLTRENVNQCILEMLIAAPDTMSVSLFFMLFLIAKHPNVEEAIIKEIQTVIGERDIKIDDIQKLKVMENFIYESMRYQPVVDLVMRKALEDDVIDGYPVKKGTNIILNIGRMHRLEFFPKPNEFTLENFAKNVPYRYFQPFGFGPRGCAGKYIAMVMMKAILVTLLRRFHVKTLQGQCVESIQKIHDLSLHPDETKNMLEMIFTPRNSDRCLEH
Type: cell-based

IC50: 9.73 µM
Structure (SMILES): C/C=C(\C)c1cc(O)c(C)c2c1Oc1cc(O)cc(C)c1C(=O)O2 [UNG, unguinol]
